According to ChEMBL document CHEMBL1159351, “New briaranes from the Taiwanese gorgonian Junceella juncea” (J Nat Prod, 2003):
In brackets after ≈: the same amount, converted by molar mass. Activity calls are given as the source filed them. The rule behind the calls is not given here.

Key:
Type in all cases: functional, cell-based
HEPA 59T/VGH = assay: (§1) Cytotoxicity against human HEPA 59T/VGH cells by methylene blue dye assay
KB16 = assay: (§2) Cytotoxicity against human KB16 cells by methylene blue dye assay
[1] = as §1
[2] = as §2

Q: For `COCC1=C/[C@@H]2OC(=O)[C@H](C)[C@@]2(O)[C@]2(OC(C)=O)[C@H]3[C@@]4(CO4)[C@H](OC(C)=O)[C@H](OC(C)=O)[C@H](OC(C)=O)[C@]3(C)[C@]2(OC(C)=O)/C=C\1`, which Activity (HEPA 59T/VGH) is on record?
A: Its Activity is “inactive”.

Q: What about the Activity (KB16) of the same compound?
A: Its Activity is “inactive”.

Q: What does the source list for `CC(=O)O[C@H]1C[C@]2(CO2)[C@H]2[C@](C)([C@H]1OC(C)=O)[C@]1(OC(C)=O)/C=C\C(CO)=C/[C@@H]3OC(=O)[C@H](C)[C@@]3(O)[C@]21OC(C)=O`?
A: Activity (HEPA 59T/VGH): inactive; Activity (KB16): inactive

Q: Which Activity (HEPA 59T/VGH) does the source give for `C=C1/C=C/[C@H](OC(C)=O)[C@@]2(C)[C@@H](OC(C)=O)CC[C@]3(CO3)[C@@H]2[C@H](OC(C)=O)[C@]2(O)[C@@H](C)C(=O)O[C@H]2[C@H]1Cl` here?
A: The Activity was “inactive”.

Q: What about the Activity (KB16) of the same compound?
A: The Activity was “inactive”.

Q: With `CC(=O)O[C@H]1[C@@H](OC(C)=O)[C@]2(CO2)[C@H]2[C@](C)([C@H]1OC(C)=O)[C@]1(OC(C)=O)/C=C\C(CO)=C/[C@@H]3OC(=O)[C@H](C)[C@@]3(O)[C@]21OC(C)=O` [JUNCENOLIDE C] as the compound, how does the IC50 [1] read?
A: Its IC50 is 6.6 µg/mL (≈ 10.4 µM).

Q: And the IC50 [2]?
A: Its IC50 is 7.8 µg/mL (≈ 12.3 µM).
